The results in this text go back to PubChem BioAssay (NCI).

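Dose response: 5 concentrations. Exposure: 48 h. Format: 96-well plates. Endpoint: linear interpolation; highest concentration if not reached. Definition used: TGI = concentration required for complete inhibition of growth.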 Bounds are passed on as bounds.

The subject of the first test is LOX IMVI melanoma. Put plainly: inhibition of tumour cell growth, NCI panel, 48 h.
On to `COC(=O)C1(C(=O)OC)C/C(C)=C(/C)SCCCS1`, for which the TGI was greater than 100 µM.
Still for that read-out and setting: then `CC1(C)CC(=O)C(C=NC(=O)c2ccncc2)=C(O)C1`, with greater than 100 µM.

Another test deals with A549 NSCLC. Put plainly: inhibition of tumour cell growth, NCI panel, 48 h.
For `S=c1[nH]c(=S)c2nnn(-c3ccccc3)c2[nH]1`, the TGI was greater than 100 µM.
Same read-out and setting: then `CC(C)CC(NC(=O)C(CI)Cc1ccccc1)C(=O)Nc1ccccc1` (stereo unspecified), with greater than 100 µM; and `CC(CO)CCNc1ncnc2c1ncn2CCC(=O)OC(C)(C)C` (stereo unspecified), with greater than 100 µM; and `COc1ccc(-n2cnn3c(=O)c4cn[nH]c4nc23)cc1`, with greater than 10 µM.
Consider `CC(C)(C)OC(=O)NC(Cc1ccc(OC(C)(C)C)cc1)C(=O)N[C@H]1CCC[C@H]1C(=O)NC(Cc1ccccc1)C(=O)N1CCCC1C(N)=O` (stereo partly specified), for which the TGI was greater than 100 µM.
On the same count and under the same terms, then `c1ccc(NN=C(c2ccccn2)c2ccccn2)nc1`, with greater than 21 µM; and `N#Cc1[nH]c(=S)[nH]c1N`, with greater than 100 µM; and `N#CC1=C(Nc2ccccc2)SC=C(c2ccccc2)NC1=NCc1ccccc1`, with greater than 100 µM.
Same read-out and setting: then `COC1=CC2C(c3cc4ccccc4n3S(=O)(=O)c3ccccc3)CC1CN2C(=O)OCc1ccccc1` (stereo unspecified), with greater than 100 µM.
With `CNC(=S)N=Nc1c(O)n(CN2CCOCC2)c2ccc([N+](=O)[O-])cc12`, the TGI was greater than 100 µM.
On the same count and under the same terms, the same measure for `COc1ccc(-c2csc(Cc3nc4ccccc4c(=O)n3-c3ccc(Cl)cc3)n2)cc1`: greater than 100 µM; for `COc1ccc(NC(=O)N(C)CC2(O)CCC(C(C)(C)C)CC2)cc1` (stereo unspecified): greater than 100 µM; for `CN(C)CCNC(=O)c1ccc2nc3c(nc2c1)C(=O)c1ccccc1-3`: greater than 100 µM.
As for `C/C(=N/NC(=S)Nc1ccc(Cl)cc1)c1cccc(/C(C)=N\NC(=S)Nc2ccc(Cl)cc2)n1`, the TGI is 53.2 µM.
On the same count and under the same terms, the same measure for `COC(=O)C1(C(=O)OC)C/C(C)=C(/C)SCCCS1`: greater than 100 µM; for `CC1(C)CC(=O)C(C=NC(=O)c2ccncc2)=C(O)C1`: greater than 100 µM.

The next test concerns HL-60(TB) leukemia. Kind of test: inhibition of tumour cell growth, NCI panel, 48 h.
The molecule `S=c1[nH]c(=S)c2nnn(-c3ccccc3)c2[nH]1` gave a TGI greater than 100 µM.
In turn, `CC(C)CC(NC(=O)C(CI)Cc1ccccc1)C(=O)Nc1ccccc1` (stereo unspecified) yielded a TGI greater than 100 µM.
On the same count and under the same terms, the same measure for `CC(CO)CCNc1ncnc2c1ncn2CCC(=O)OC(C)(C)C` (stereo unspecified): greater than 100 µM; for `COc1ccc(-n2cnn3c(=O)c4cn[nH]c4nc23)cc1`: greater than 10 µM.
Still for that read-out and setting: then `N#Cc1[nH]c(=S)[nH]c1N`, with greater than 100 µM.
`COC1=CC2C(c3cc4ccccc4n3S(=O)(=O)c3ccccc3)CC1CN2C(=O)OCc1ccccc1` (stereo unspecified) showed a TGI of 41.9 µM.
`CNC(=S)N=Nc1c(O)n(CN2CCOCC2)c2ccc([N+](=O)[O-])cc12` had a TGI of 69.8 µM.
Same read-out and setting: then `COc1ccc(-c2csc(Cc3nc4ccccc4c(=O)n3-c3ccc(Cl)cc3)n2)cc1`, with greater than 100 µM; and `COc1ccc(NC(=O)N(C)CC2(O)CCC(C(C)(C)C)CC2)cc1` (stereo unspecified), with greater than 100 µM.
On the same count and under the same terms, then `CN(C)CCNC(=O)c1ccc2nc3c(nc2c1)C(=O)c1ccccc1-3`, with 38.2 µM; and `CC1(C)CC(=O)C(C=NC(=O)c2ccncc2)=C(O)C1`, with greater than 100 µM.

The next test has as its system DU-145 prostate. Put plainly: inhibition of tumour cell growth, NCI panel, 48 h.
With `CC(C)CC(NC(=O)C(CI)Cc1ccccc1)C(=O)Nc1ccccc1` (stereo unspecified), the TGI was greater than 100 µM.
Same read-out and setting: then `CC(CO)CCNc1ncnc2c1ncn2CCC(=O)OC(C)(C)C` (stereo unspecified), with greater than 100 µM; and `COc1ccc(-n2cnn3c(=O)c4cn[nH]c4nc23)cc1`, with greater than 10 µM; and `CC(C)(C)OC(=O)NC(Cc1ccc(OC(C)(C)C)cc1)C(=O)N[C@H]1CCC[C@H]1C(=O)NC(Cc1ccccc1)C(=O)N1CCCC1C(N)=O` (stereo partly specified), with greater than 100 µM.
Take `c1ccc(NN=C(c2ccccn2)c2ccccn2)nc1`: the TGI was greater than 100 µM.
On the same count and under the same terms, the same measure for `N#Cc1[nH]c(=S)[nH]c1N`: greater than 100 µM; for `N#CC1=C(Nc2ccccc2)SC=C(c2ccccc2)NC1=NCc1ccccc1`: greater than 100 µM.
The same measure, in the same setting: the same measure for `COC1=CC2C(c3cc4ccccc4n3S(=O)(=O)c3ccccc3)CC1CN2C(=O)OCc1ccccc1` (stereo unspecified): greater than 100 µM.
`CNC(=S)N=Nc1c(O)n(CN2CCOCC2)c2ccc([N+](=O)[O-])cc12` showed a TGI of 27.3 µM.
Same read-out and setting: the same measure for `COc1ccc(-c2csc(Cc3nc4ccccc4c(=O)n3-c3ccc(Cl)cc3)n2)cc1`: greater than 100 µM; for `COc1ccc(NC(=O)N(C)CC2(O)CCC(C(C)(C)C)CC2)cc1` (stereo unspecified): greater than 100 µM; for `CN(C)CCNC(=O)c1ccc2nc3c(nc2c1)C(=O)c1ccccc1-3`: greater than 100 µM.
Still for that read-out and setting: the same measure for `C/C(=N/NC(=S)Nc1ccc(Cl)cc1)c1cccc(/C(C)=N\NC(=S)Nc2ccc(Cl)cc2)n1`: 65.5 µM; for `COC(=O)C1(C(=O)OC)C/C(C)=C(/C)SCCCS1`: greater than 100 µM.
`CC1(C)CC(=O)C(C=NC(=O)c2ccncc2)=C(O)C1` displayed a TGI greater than 100 µM.

The test system of a further test is T-47D breast. Put plainly: inhibition of tumour cell growth, NCI panel, 48 h.
Take `CC(CO)CCNc1ncnc2c1ncn2CCC(=O)OC(C)(C)C` (stereo unspecified): the TGI is greater than 100 µM.
Still for that read-out and setting: then `CC(C)(C)OC(=O)NC(Cc1ccc(OC(C)(C)C)cc1)C(=O)N[C@H]1CCC[C@H]1C(=O)NC(Cc1ccccc1)C(=O)N1CCCC1C(N)=O` (stereo partly specified), with greater than 100 µM; and `N#CC1=C(Nc2ccccc2)SC=C(c2ccccc2)NC1=NCc1ccccc1`, with greater than 100 µM; and `CNC(=S)N=Nc1c(O)n(CN2CCOCC2)c2ccc([N+](=O)[O-])cc12`, with 38.9 µM.
`C/C(=N/NC(=S)Nc1ccc(Cl)cc1)c1cccc(/C(C)=N\NC(=S)Nc2ccc(Cl)cc2)n1` came in with a TGI greater than 100 µM.
In the case of `COC(=O)C1(C(=O)OC)C/C(C)=C(/C)SCCCS1`, the TGI was greater than 100 µM.

The next test deals with COLO 205 colon. Kind of test: inhibition of tumour cell growth, NCI panel, 48 h.
`S=c1[nH]c(=S)c2nnn(-c3ccccc3)c2[nH]1` had a TGI greater than 100 µM.
The same measure, in the same setting: the same measure for `CC(C)CC(NC(=O)C(CI)Cc1ccccc1)C(=O)Nc1ccccc1` (stereo unspecified): greater than 100 µM.
On the same count and under the same terms, then `CC(CO)CCNc1ncnc2c1ncn2CCC(=O)OC(C)(C)C` (stereo unspecified), with greater than 100 µM; and `CC(C)(C)OC(=O)NC(Cc1ccc(OC(C)(C)C)cc1)C(=O)N[C@H]1CCC[C@H]1C(=O)NC(Cc1ccccc1)C(=O)N1CCCC1C(N)=O` (stereo partly specified), with greater than 100 µM.
On the same count and under the same terms, the same measure for `c1ccc(NN=C(c2ccccn2)c2ccccn2)nc1`: greater than 100 µM; for `N#Cc1[nH]c(=S)[nH]c1N`: greater than 100 µM.
`N#CC1=C(Nc2ccccc2)SC=C(c2ccccc2)NC1=NCc1ccccc1` showed a TGI greater than 100 µM.
Molecule `COC1=CC2C(c3cc4ccccc4n3S(=O)(=O)c3ccccc3)CC1CN2C(=O)OCc1ccccc1` (stereo unspecified) had a TGI of 31.2 µM.
On the same count and under the same terms, the same measure for `CNC(=S)N=Nc1c(O)n(CN2CCOCC2)c2ccc([N+](=O)[O-])cc12`: 91.3 µM.
The same measure, in the same setting: then `COc1ccc(-c2csc(Cc3nc4ccccc4c(=O)n3-c3ccc(Cl)cc3)n2)cc1`, with greater than 100 µM; and `COc1ccc(NC(=O)N(C)CC2(O)CCC(C(C)(C)C)CC2)cc1` (stereo unspecified), with greater than 100 µM.
`CN(C)CCNC(=O)c1ccc2nc3c(nc2c1)C(=O)c1ccccc1-3` displayed a TGI greater than 100 µM.
For `C/C(=N/NC(=S)Nc1ccc(Cl)cc1)c1cccc(/C(C)=N\NC(=S)Nc2ccc(Cl)cc2)n1`, the TGI came out at 30.7 µM.
The same measure, in the same setting: the same measure for `COC(=O)C1(C(=O)OC)C/C(C)=C(/C)SCCCS1`: greater than 100 µM; for `CC1(C)CC(=O)C(C=NC(=O)c2ccncc2)=C(O)C1`: greater than 100 µM.

The subject of a further test is HCT-15 colon. Put plainly: inhibition of tumour cell growth, NCI panel, 48 h.
Molecule `S=c1[nH]c(=S)c2nnn(-c3ccccc3)c2[nH]1` had a TGI greater than 100 µM.
